These results are taken from patent US10377741B2, “Substituted heteroaryl aldehyde compounds and methods for their use in increasing tissue oxygenation” (Global Blood Therapeutics, Inc., priority 2011, dated 2019).

Test [1] addresses T1, purified Hemoglobin S (HbS) (Homo sapiens, UniProt P68871+P69905, E7V).
T1 construct: HbS was purified by a modified procedure; from tissue; host or cells: blood of homozygous sickle cell patients (CHORI); for the polymerization assay purified by the CRO VIRUSYS
The experiment in a line: Modulation of hemoglobin oxygen affinity: oxygen equilibrium curves (HEMOX) in purified HbS. Type of test: biochemical, human (homozygous sickle cell patients). The conditions noted are these: compound at 30 μM; 25 μM purified HbS, 45 min at 37° C. The gist of the method: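 HbS from homozygous sickle cell patient blood, 25 μM in HEMOX buffer pH 7.4, incubated 45 min at 37° C with compound (30 μM unless noted). Air-saturated then deoxygenated with N2; p50 from Hill fit; delta p50% = (control p50 − treated p50)/control p50 × 100.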

Another test deals with T2, purified HBS (Homo sapiens, UniProt P68871+P69905, E7V).
T2 construct: HbS was purified by a modified procedure; from tissue; host or cells: blood of homozygous sickle cell patients (CHORI); for the polymerization assay purified by the CRO VIRUSYS
Description: Polymerization assay (delay time of HbS polymerization). The test is classed as biochemical, human (homozygous sickle cell patients). The following applies: percent delay (% DT) vs HBS alone; 50 μM purified HBS, 1.8 M potassium phosphate pH 7.4. Here is the method:
Polymerization assays are carried out in vitro using purified HBS exchanged into 1.8 M potassium phosphate buffer at pH 7.4. Using a slightly modified protocol (Antonini and Brunori, 1971), HbS is purified by the CRO VIRUSYS, from blood obtained from homozygous sickle cell patients through the Hemoglobinopathy Center at Children's Hospital Oakland Research Institute (CHORI) with Institutional Review Board approval. Compounds are prepared in 100% DMSO and a desired amount is added to 50 μM of purified HBS at a final DMSO concentration of 0.3%. Final potassium phosphate concentration is adjusted to 1.8 M using a combination of 2.5 M potassium phosphate stock solution and water at pH 7.4. The reaction mixture is incubated for an hour at 37° C. and then transferred into a 24-well plate for deoxygenation in a glove box containing 99.5% nitrogen and 0.5% oxygen. The 24-well plate is not covered and incubated at 4° C. on a plate cooler inside the glove box for one and a half hours. Fifty μL of the reaction mixture is transferred into a 96-well plate and the absorbance at 700 nm is measured every minute for one hour at 37° C. in a plate reader located inside the glove box. A plot of the absorbance against time is fitted using a Boltzman sigmoidal fit and the delay time (from zero to time at half Vmax) is measured. To compare and rank compounds, delay times are expressed as percent delay (% DT), which is defined as the difference in delay times for HBS/compound and HBS alone multiplied by 100 and divided by the delay time for HBS alone.
Compounds listed below have been tested in the polymerization assay. Activity ranges are defined by the number of dagger (†) symbols indicated. † denotes activity ≥40% but ≤80%; †† denotes activity >80% but ≤120%; ††† denotes activity >120% but ≤140%; †††† denotes activity >160%.

For the next test, the target named is T3, HbS/A (Homo sapiens, UniProt P68871+P69905, E7V).
T3 construct: A mixture of HbS/A was purified from blood; from tissue; host or cells: blood of homozygous sickle cell patients (CHORI)
The experiment in a line: R/T assay (relaxed-to-tense transition under deoxygenated conditions). Type of test: biochemical, human (homozygous sickle cell patients). The following applies: 3 μM HbS/A, % R remaining vs no treatment. The gist of the method:
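Purified HbS/A (3 μM final) incubated 1 hr at 37° C with compounds (3 μM to 100 μM) in potassium phosphate buffer pH 7.4 with 30 μM DPG, then deoxygenated under N2 with 300–700 nm spectra every 5 min for 2 hours. Delta R is % R state retained versus untreated, by linear regression over all wavelengths.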

The test system of a further test is whole blood. Description: Whole blood assay: oxygen equilibrium curves of whole blood. The test is classed as cell-based, human (homozygous sickle cell patients). The following applies: compound at 1000 μM; hematocrit 20%, 1 hour at 37° C. As to the method: Oxygen Equilibrium Curves (OEC) of whole blood before and after treatment with different concentrations of substituted benzaldehyde compounds were performed as follows using a HEMOX analyzer (TCS Scientific, New Hope, Pa.). Blood samples from homozygous sickle cell patients were obtained though the Hemoglobinopathy Center at Children's Hospital Oakland Research Institute (CHORI) with Institutional Review Board approval. The hematocrit was adjusted to 20% using autologous plasma and the blood samples were incubated for 1 hour at 37° C. in absence or presence of compounds. 100 μl of these samples were added to 5 mL of Hemox buffer (30 mM TES, 130 mM NaCl, 5 mM KCl, pH=7.4) at 37° C. and then transferred to the Hemox sample chamber. The samples were saturated with oxygen by flushing with compressed air for 10 minutes. The samples were then flushed with pure nitrogen and the respective absorbances of oxy- and deoxy-Hb are recorded as a function of the solution pO2. The oxygen equilibrium data were then fitted to the Hill Model to obtain values for p50. The deoxygenation curves for both whole blood alone (control) and whole blood in the presence of the compound were collected with the TCS software.
Table 5 below lists the delta p50% values where + indicates a delta p50% of between 0 and 29, ++ indicates a delta p50% of between 30 and 50, and +++ indicates a delta p50% of 50 or greater. Unless noted otherwise, the compounds in Table 2 were tested at 1000 μM.

Molecules are shown by their SMILES.

As to `COc1cc(C=O)c(OCc2cccnc2-c2ccnn2CC(=O)O)cn1` [Compound 199, 2-(5-(3-((4-formyl-6-methoxypyridin-3-yloxy)methyl)pyridin-2-yl)-1H-pyrazol-1-yl)acetic acid], in test [1], the “delta p50%” value is reported as “+++ (a delta p50% of 50 or greater)”. The “% delta Delay” value on purified HBS was “††† (activity >120% but ≤140%)”. Moreover, on HbS/A (compound at 9 μM), the “delta R” value was “+ (a delta R of between 0 and 30)”. In the test with whole blood, the “delta p50% Values for Whole Blood Assay” value was “+ (a delta p50% of between 0 and 29)”.

Turning to `COc1cc(C=O)c(OCc2cccnc2-c2ccn(C)n2)cn1` [Compound 130, 2-methoxy-5-((2-(1-methyl-1H-pyrazol-3-yl)pyridin-3-yl)methoxy)isonicotinaldehyde], the “delta p50%” value in test [1] is “++ (a delta p50% of between 30 and 50)”. On purified HBS, the “% delta Delay” value was “† (activity ≥40% but ≤80%)”. Also, the “delta R” value at HbS/A (compound at 9 μM) is “+ (a delta R of between 0 and 30)”. Moreover, the “delta p50% Values for Whole Blood Assay” value in the test on whole blood is “++ (a delta p50% of between 30 and 50)”.

Turning to `COc1cc(C=O)c(OCc2cccnc2-c2ccccc2)cn1` [Compound 159, 2-methoxy-5-((2-phenylpyridin-3-yl)methoxy) isonicotinaldehyde], the “delta p50%” value in test [1] was “+++ (a delta p50% of 50 or greater)”. For the same compound, the “% delta Delay” value on purified HBS is “†† (activity >80% but ≤120%)”. For the same compound, at HbS/A (compound at 30 μM), the “delta R” value is “++ (a delta R of between 30 and 50)”. Besides, in the test with whole blood, the “delta p50% Values for Whole Blood Assay” value is reported as “+++ (a delta p50% of 50 or greater)”.

In the case of `CCn1nccc1-c1ncccc1COc1cnc(OC)cc1C=O` [Compound 149, 5-((2-(1-ethyl-1H-pyrazol-5-yl)pyridin-3-yl)methoxy)-2-methoxyisonicotinaldehyde], in test [1], the “delta p50%” value is “+++ (a delta p50% of 50 or greater)”. Also, the “% delta Delay” value on purified HBS was “† (activity ≥40% but ≤80%)”. Also, the “delta R” value on HbS/A (compound at 9 μM) was “+ (a delta R of between 0 and 30)”. For the same compound, the “delta p50% Values for Whole Blood Assay” value in the test on whole blood is recorded as “+++ (a delta p50% of 50 or greater)”.

For `CC(C)n1nccc1-c1ncccc1COc1cccnc1C=O` [Compound 176, 3-((2-(1-isopropyl-1H-pyrazol-5-yl)pyridin-3-yl)methoxy)picolinaldehyde], the “delta p50%” value in test [1] was “+++ (a delta p50% of 50 or greater)”. For the same compound, the “% delta Delay” value at purified HBS is on record as “† (activity ≥40% but ≤80%)”. For the same compound, the “delta R” value on HbS/A (compound at 9 μM) was “+ (a delta R of between 0 and 30)”. The “delta p50% Values for Whole Blood Assay” value in the test on whole blood is given as “+++ (a delta p50% of 50 or greater)”.

On to `O=Cc1ccncc1OCc1cccc(C(=O)O)c1` [Compound 169, 3-(((4-formylpyridin-3-yl)oxy)methyl)benzoic acid], for which, in test [1], the “delta p50%” value is “++ (a delta p50% of between 30 and 50)”. Moreover, the “% delta Delay” value on purified HBS was “††† (activity >120% but ≤140%)”. Also, the “delta R” value on HbS/A (compound at 9 μM) is “++ (a delta R of between 30 and 50)”. Moreover, the “delta p50% Values for Whole Blood Assay” value with whole blood is “++ (a delta p50% of between 30 and 50)”.

Consider `COc1cc(C=O)c(OCc2cccnc2-c2ccccc2C)cn1` [Compound 162, 2-methoxy-5-((2-(o-tolyl)pyridin-3-yl)methoxy)isonicotinaldehyde], for which the “delta p50%” value in test [1] is reported as “+++ (a delta p50% of 50 or greater)”. Further, the “% delta Delay” value at purified HBS was “†† (activity >80% but ≤120%)”. Moreover, the “delta R” value on HbS/A (compound at 30 μM) is given as “+++ (a delta R of 50 or greater)”. In addition, the “delta p50% Values for Whole Blood Assay” value in the test on whole blood was “+++ (a delta p50% of 50 or greater)”.

On to `COc1cc(C=O)c(OCc2ccncc2-c2ccnn2C(C)C)cn1` [Compound 160, 5-((3-(1-isopropyl-1H-pyrazol-5-yl)pyridin-4-yl)methoxy)-2-methoxyisonicotinaldehyde], for which, in test [1], the “delta p50%” value was “+++ (a delta p50% of 50 or greater)”. Moreover, the “% delta Delay” value at purified HBS was “†† (activity >80% but ≤120%)”. Further, at HbS/A (compound at 30 μM), the “delta R” value is “+ (a delta R of between 0 and 30)”. Also, the “delta p50% Values for Whole Blood Assay” value with whole blood is recorded as “+++ (a delta p50% of 50 or greater)”.

`COc1cc(C=O)c(OCc2cccnc2-c2ccnn2CC(F)F)cn1` [Compound 175, 5-((2-(1-(2,2-difluoroethyl)-1H-pyrazol-5-yl)pyridin-3-yl)methoxy)-2-methoxyisonicotinaldehyde]: the “delta p50%” value in test [1] was “+++ (a delta p50% of 50 or greater)”. Further, on purified HBS, the “% delta Delay” value is recorded as “†† (activity >80% but ≤120%)”. Besides, the “delta R” value on HbS/A (compound at 30 μM) is “++ (a delta R of between 30 and 50)”. In the test with whole blood, the “delta p50% Values for Whole Blood Assay” value is “+++ (a delta p50% of 50 or greater)”.

`COC(=O)c1ccc(COc2cccnc2C=O)cc1` [Compound 164]: the “delta p50%” value in test [1] was “++ (a delta p50% of between 30 and 50)”. At purified HBS, the “% delta Delay” value is “††† (activity >120% but ≤140%)”. In addition, the “delta R” value on HbS/A (compound at 9 μM) was “++ (a delta R of between 30 and 50)”. Further, the “delta p50% Values for Whole Blood Assay” value in the test with whole blood was “++ (a delta p50% of between 30 and 50)”.

For `COc1cc(C=O)c(OCc2cccnc2-c2ccnn2C(C)C)cn1` [Compound 150], the “delta p50%” value in test [1] is on record as “+++ (a delta p50% of 50 or greater)”. Further, the “% delta Delay” value on purified HBS is recorded as “††† (activity >120% but ≤140%)”. Besides, the “delta R” value at HbS/A (compound at 30 μM) was “+++ (a delta R of 50 or greater)”. The “delta p50% Values for Whole Blood Assay” value in the test on whole blood was “+++ (a delta p50% of 50 or greater)”.

As for `O=Cc1c(O)cncc1OCc1ccccc1` [Compound 187, 3-(benzyloxy)-5-hydroxyisonicotinaldehyde], the “delta p50%” value in test [1] is “++ (a delta p50% of between 30 and 50)”. The “% delta Delay” value at purified HBS is reported as “†† (activity >80% but ≤120%)”. In addition, at HbS/A (compound at 9 μM), the “delta R” value is listed as “+++ (a delta R of 50 or greater)”. Also, the “delta p50% Values for Whole Blood Assay” value in the test with whole blood was “+ (a delta p50% of between 0 and 29)”.

With `COc1cc(C=O)c(OCc2cccnc2-c2ccnn2CC2CCCCC2)cn1` [Compound 197, 5-((2-(1-(cyclohexylmethyl)-1H-pyrazol-5-yl)pyridin-3-yl)methoxy)-2-methoxyisonicotinaldehyde], the “delta p50%” value in test [1] was “++ (a delta p50% of between 30 and 50)”. Also, the “% delta Delay” value on purified HBS is given as “† (activity ≥40% but ≤80%)”. For the same compound, the “delta R” value at HbS/A (compound at 9 μM) was “+ (a delta R of between 0 and 30)”. Besides, the “delta p50% Values for Whole Blood Assay” value in the test with whole blood is reported as “+++ (a delta p50% of 50 or greater)”.

Consider `CC(C)n1nccc1-c1ncccc1COc1cnc(OC(F)F)cc1C=O` [Compound 178, 2-(difluoromethoxy)-5-((2-(1-isopropyl-1H-pyrazol-5-yl)pyridin-3-yl)methoxy)isonicotinaldehyde], for which the “delta p50%” value in test [1] was “++ (a delta p50% of between 30 and 50)”. Further, the “% delta Delay” value at purified HBS is “† (activity ≥40% but ≤80%)”. Besides, at HbS/A (compound at 9 μM), the “delta R” value was “+ (a delta R of between 0 and 30)”. For the same compound, the “delta p50% Values for Whole Blood Assay” value in the test on whole blood is “++ (a delta p50% of between 30 and 50)”.
